Assays:
[1] = tested on: Hepatitis C virus; assay: microbe, parasite or virus in culture
[2] = in vitro; details: human
[3] = tested on: Hepatitis C virus; assay: microbe, parasite or virus in culture; details: subtype 1b
[4] = in vitro; details: human, hela
[5] = tested on: Human rhinovirus sp.; assay: microbe, parasite or virus in culture
[6] = tested on: Coxsackievirus B3; assay: microbe, parasite or virus in culture; details: Enterovirus B
[7] = tested on: Dengue virus; assay: microbe, parasite or virus in culture
[8] = tested on: Human alphaherpesvirus 1; assay: Antiviral activity against HSV-1 in HFL1 cells incubated for 24 hrs; type: functional, organism-based; details: Human alphaherpesvirus 1, HFL1, 24 h
[9] = tested on: Human alphaherpesvirus 1; assay: microbe, parasite or virus in culture; type: functional, organism-based
[10] = Cytotoxicity against HFL1 cells; type: toxicity, cell-based; details: human
[11] = tested on: Influenza A virus; assay: microbe, parasite or virus in culture; type: functional, organism-based; details: H1N1pdm09
[12] = Cytotoxicity against human A549 cells; type: toxicity, cell-based
[13] = molecular target: Tyrosine-protein kinase JAK2 (Homo sapiens, UniProt O60674)
[14] = in vitro; details: chlorocebus sabaeus, vero c1008
[15] = tested on: SARS-CoV-2; assay: microbe, parasite or virus in culture; type: functional, organism-based; details: Severe acute respiratory syndrome coronavirus 2, Huh-7
[16] = tested on: SARS-CoV-2; assay: microbe, parasite or virus in culture; type: functional, organism-based; details: Severe acute respiratory syndrome coronavirus 2
[17] = molecular target: Janus Kinase (JAK) (Homo sapiens, UniProt P52333+P23458+O60674+P29597); type: protein assay
[18] = in vitro; details: dog, MDCK cells
[19] = tested on: Influenza A virus; assay: microbe, parasite or virus in culture; type: functional, organism-based
[20] = tested on: SARS-CoV-2; assay: microbe, parasite or virus in culture; type: functional, organism-based, Vero E6; details: Severe acute respiratory syndrome coronavirus 2, Vero C1008
[21] = tested on: Vero C1008; assay: Cytotoxicity against African green monkey Vero E6 cells at 250 nM; type: toxicity, cell-based; details: chlorocebus sabaeus, vero c1008, 0.25 µM
[22] = Volume of distribution at steady state in cynomolgus monkey plasma at 3 mg/kg, iv at […] LC-MS/MS analysis; type: ADME, organism-based, Macaca fascicularis; details: time 0.083 hrs, read-out: Vdss
[23] = Volume of distribution at steady state in Han-Wistar rat plasma at 5 mg/kg, iv at […] LC-MS/MS analysis; type: ADME, organism-based; details: time 0.083 hrs, read-out: Vdss
[24] = Volume of distribution at steady state in CD-1 mouse plasma at 10 mg/kg, iv at […] LC-MS/MS analysis; type: ADME, organism-based; details: time 0.083 hrs, read-out: Vdss
[25] = Volume of distribution at steady state in Beagle dog plasma at 1 mg/kg, iv at […] LC-MS/MS analysis; type: ADME, organism-based, Canis lupus familiaris; details: time 0.083 hrs, read-out: Vdss
[26] = tested on: Influenza A virus; assay: microbe, parasite or virus in culture; type: functional, organism-based; details: H3N2
[27] = tested on: Lyssavirus rabies; assay: microbe, parasite or virus in culture; type: functional, organism-based
[28] = Cytotoxicity against golden hamster BSR cells; type: toxicity, cell-based, Mesocricetus auratus
[29] = tested on: Influenza A virus; assay: Antiviral activity against influenza A/Regensburg/D6/2009 virus; type: functional, organism-based

Sequence of Tyrosine-protein kinase JAK2 (O60674 whole entry): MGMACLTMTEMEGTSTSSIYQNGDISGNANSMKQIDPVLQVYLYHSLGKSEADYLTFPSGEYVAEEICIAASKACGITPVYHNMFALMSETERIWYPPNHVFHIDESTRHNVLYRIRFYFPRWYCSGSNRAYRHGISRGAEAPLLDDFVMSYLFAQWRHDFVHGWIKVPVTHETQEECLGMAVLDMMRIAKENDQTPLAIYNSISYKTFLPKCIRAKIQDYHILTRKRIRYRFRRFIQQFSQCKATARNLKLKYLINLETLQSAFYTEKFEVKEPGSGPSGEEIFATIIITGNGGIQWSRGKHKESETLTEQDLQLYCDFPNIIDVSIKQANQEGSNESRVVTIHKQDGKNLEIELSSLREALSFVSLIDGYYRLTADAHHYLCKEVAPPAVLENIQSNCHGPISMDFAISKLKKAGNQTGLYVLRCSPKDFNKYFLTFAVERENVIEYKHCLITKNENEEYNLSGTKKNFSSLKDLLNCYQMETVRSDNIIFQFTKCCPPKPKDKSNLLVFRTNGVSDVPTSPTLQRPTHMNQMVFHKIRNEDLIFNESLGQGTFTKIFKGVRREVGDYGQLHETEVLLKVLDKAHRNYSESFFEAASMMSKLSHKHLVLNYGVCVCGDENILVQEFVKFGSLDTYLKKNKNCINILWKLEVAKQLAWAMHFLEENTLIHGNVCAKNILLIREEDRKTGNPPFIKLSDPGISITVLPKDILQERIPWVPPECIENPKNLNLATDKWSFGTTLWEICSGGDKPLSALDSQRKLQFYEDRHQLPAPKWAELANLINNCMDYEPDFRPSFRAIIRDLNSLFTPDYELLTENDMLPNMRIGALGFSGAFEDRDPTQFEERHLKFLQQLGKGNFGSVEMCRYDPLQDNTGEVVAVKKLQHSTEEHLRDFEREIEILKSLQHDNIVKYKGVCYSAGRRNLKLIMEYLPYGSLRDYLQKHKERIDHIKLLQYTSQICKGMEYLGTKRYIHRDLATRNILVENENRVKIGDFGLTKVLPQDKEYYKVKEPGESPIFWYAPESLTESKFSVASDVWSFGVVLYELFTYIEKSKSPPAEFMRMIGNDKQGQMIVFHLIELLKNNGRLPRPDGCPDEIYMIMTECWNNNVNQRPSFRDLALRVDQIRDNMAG

COc1cc(-c2cnc3c(N4CCOCC4)snc3c2)cc(OC)c1OC
EC50 [1]: 2.5 µM | CC50 ([2]; Huh-7.5.1 cells): 23.2 µM

COc1ccc(-c2cnc3c(OC(C)C)snc3c2)cc1OC
CC50 ([2]; huh7.5.1): > 10 µM

CC(=O)NCCNc1cc(Cl)nn2c(-c3cccc(S(=O)(=O)N(C)C)c3)c(C)nc12
EC50 [3]: 0.08 µM | CC50 [4]: > 50 µM | EC50 [5]: 1.03 µM | EC50 [6]: 0.14 µM

COc1ccc(-c2cnc3[nH]cc(C#Cc4cccnc4)c3c2)cc1OC
EC50 [7]: 0.043 µM | CC50 ([2]; Huh-7.5.1 cells): 17 µM

COc1ccc(-c2ccc3nsc(N4C[C@@H](C)O[C@@H](C)C4)c3n2)cc1OC
EC50 [7]: 1 µM | CC50 ([2]; huh7.5.1): > 10 µM

Cc1c(NC(=O)c2cccc(NC(=O)C(C)NC(=O)c3ccco3)c2)c(=O)n(-c2ccccc2)n1C (stereo not given)
IC50 [8]: 29 µM | EC50 [9]: 64 µM | CC50 [10]: 2040 µM

CC1Oc2ccc(NC(=O)[C@@H](Cc3c[nH]c4ccccc34)NC(=O)c3ccc(F)cc3)cc2NC1=O (stereo not given in full)
IC50 [8]: 29 µM | EC50 [9]: 29 µM | CC50 [10]: 1410 µM

CCNS(=O)(=O)c1cc(-c2c(C)nc3c(NCc4ccnc(CC)c4)cc(Cl)nn23)ccc1OO
EC50 [3]: 0.029 µM | CC50 [4]: 18.3 µM | EC50 [5]: 0.075 µM | EC50 [6]: 0.058 µM

Cc1cc(-c2cc(C(=O)Nc3nc(CN4CCCC(C)C4)cs3)c3c(C)noc3n2)c(C)o1 (stereo not given)
IC50 [8]: 29 µM | EC50 [9]: 32 µM | CC50 [10]: 159 µM

Cc1cc(C(=O)NOCCO)c(Nc2ccc(I)cc2F)n(C)c1=O [AZD-8330]
IC50 [11]: 0.04 µM | CC50 [12]: > 100 µM

CCc1cnn2c(NCc3ccc[n+]([O-])c3)cc(N3CCCC[C@H]3CCO)nc12 [DINACICLIB]
CC50 [12]: > 100 µM

Cc1cc(Nc2cc(CN3CCOCC3)c3nc(C)c(Cc4ccc(Cl)cc4F)n3n2)n[nH]1 [GANDOTINIB]
IC50 [13]: 0.003 µM

CCc1nc(C(N)=O)c(Nc2ccc(N3CCC(N4CCN(C)CC4)CC3)c(OC)c2)nc1NC1CCOCC1 [GILTERITINIB]
CC50 [14]: > 0.5 µM | IC50 [15]: 0.225 µM | EC50 [16]: 0.225 µM

N#CCC1CCN(c2nc(Nc3ccc(N4CCC(O)CC4)cc3)c3c(=O)[nH]ncc3n2)CC1 [GUSACITINIB]
IC50 [17]: 0.005 µM

CCS(=O)(=O)Nc1ccc2c(c1)/C(=C(/Nc1ccc(CN3CCCCC3)cc1)c1ccccc1)C(=O)N2 [HESPERADIN]
CC50 [18]: 21.3 µM | EC50 [19]: 0.28 µM

Cc1cc(Nc2cc3ncccc3c(N[C@@H]3C[C@H]4CC[C@@H](C3)N4CCC#N)n2)n[nH]1 [IZENCITINIB]
EC50 [20]: 0.02 µM | IC50 [15]: 0.02 µM

O=C(NOC[C@H](O)CO)c1ccc(F)c(F)c1Nc1ccc(I)cc1F [MIRDAMETINIB]
CC50 [12]: > 100 µM

Cc1cn(-c2cc(NC(=O)c3ccc(C)c(Nc4nccc(-c5cccnc5)n4)c3)cc(C(F)(F)F)c2)cn1 [NILOTINIB]
Activity [21]: Non-Toxic | Vd at […] [22]: 0.55 L/kg | Vd at […] [23]: 0.55 L/kg | EC50 [16]: 0.08 µM | Vd at […] [24]: 0.55 L/kg | Vd at […] [25]: 0.55 L/kg

C[C@H](Nc1cc(-c2cnn(C)c2)cc(Nc2cnccn2)n1)c1ccc(F)cc1 [NS-018]
IC50 [13]: 0.00027 µM

COc1cc(F)c(F)c(Nc2ccc(I)cc2F)c1NS(=O)(=O)C1(C[C@H](O)CO)CC1 [REFAMETINIB]
IC50 [11]: 0.06 µM | CC50 [12]: > 100 µM

CNC(=O)c1cc(Oc2ccc(NC(=O)Nc3ccc(Cl)c(C(F)(F)F)c3)c(F)c2)ccn1 [REGORAFENIB]
EC50 [26]: 0.89 µM | CC50 [12]: 14.2 µM

CC(=O)c1c(O)c(C)c(O)c(Cc2c(O)c3c(c(C(=O)/C=C/c4ccccc4)c2O)OC(C)(C)C=C3)c1O [ROTTLERIN]
EC50 [27]: 1 µM | CC50 [28]: 100 µM

Cn1cnc2c(F)c(Nc3ccc(Br)cc3Cl)c(C(=O)NOCCO)cc21 [SELUMETINIB]
EC50 [29]: 0.75 µM | EC50 [11]: 0.75 µM | CC50 [12]: > 100 µM

CNC(=O)c1cccc(-c2ccc3c(N4CCOC[C@@H]4C)nc(N4CCOC[C@@H]4C)nc3n2)c1 [VISTUSERTIB]
Activity [21]: Non-Toxic | EC50 [16]: 0.0159 µM

Reference: ChEMBL document CHEMBL5131375, “Recent Developments in the Use of Kinase Inhibitors for Management of Viral Infections” (J Med Chem, 2022)
